Measured values reported in patent publication US20110053835A1, “ANTIMICROBIAL PEPTIDES DERIVED FROM CAP18” (OctoPlus Sciences B.V., priority 2004, published 2011).
In brackets after ≈: the same amount, converted by molar mass. Where two headings read alike, the source gives them in different places. Marks after values point to notes of the source that are not given here.

Experiments:
LTA = LTA neutralization, whole blood (WB) assay; type: cell-based; conditions: ± SD
Experimental: (§1) The compounds prepared according to example 1 were tested for their capability to neutralize the bacterial toxin LPS with a limulus amoebocyte lysate (LAL) assay and with a whole blood (WB) assay. LTA neutralization was also measured with a whole blood assay. Peptide LL-37 was used as a positive control. The peptide concentration whereby 50% LPS is neutralized was used as a measure of the peptide's activity. These concentration values were as in table 1. The differences between the compounds within each assay were not statistically significant.

LPS [1] = experiment: LPS neutralization, limulus amoebocyte lysate (LAL) assay; type: biochemical; conditions: ± SD
Experimental: as §1

[2] = test system: Aspergillus niger ATCC 14406
Experimental: (§2) The in vitro antibacterial and antifungal activity of P60.4-Ac and LL-37 were determined as the minimum inhibitory concentrations (MIC) by a microdilution susceptibility test in 96-well microtiter plates, according to a modified version of R. Hancock's “Modified MIC method for cationic antimicrobial peptides” [13]. The antibacterial activity was tested on the reference strains Escherichia coli ATCC 8739, Pseudmonas aeruginosa ATCC 9027. The antifungal activity was evaluated on Candida albicans ATCC 10231 and Aspergillus niger ATCC 14406. The antimicrobial activity assay was conducted with different concentrations of P60.4Ac and LL-37 to compare their effects on the bacterial or fungal growth. Antibacterial activity was examined using log-phase cultured bacteria in Trypticase Soy Broth at 37° C. The cultures were diluted with 10 mM Sodium Phosphate buffer pH 7.4 to give approximately 5.0×10^6 CFU/ml. 10 μl of the diluted test strain was transferred to a 96-well plate and 100 μl of the different peptide concentrations was added to each well. The plates were incubated at 37° C. for 24 hours and are then scored for growth by visual inspection on a light box. They are then returned for incubation for a further 24 hours after which time they are re-evaluated for growth. The yeast strain C. albicans was prepared as described above. The filamentous fungi A. niger was used as a spore suspension, cultured on Sabourauds Dextrose Agar plates at 20-25° C. for 6-10 days or until adequate sporulation has occurred. The spores were harvested by scrapping and if necessary the concentration was adjusted to a final concentration of 5×10^6 CFU/ml.

[3] = test system: Escherichia coli ATCC 8739; conditions: mean of three determinations
Experimental: as §2

P. aeruginosa ATCC9027 = test system: P. aeruginosa ATCC9027
Experimental: as §2

[4] = test system: Candida albicans ATCC 10231
Experimental: as §2

[5] = test system: peripheral blood mononuclear cells (PBMC); experiment: γ-IFN Elispot assay; type: cell-based; conditions: fraction of positive stimulation indices (positive: >2), 48 hours of culture
Experimental: (§3) The compounds prepared according to example 1 were tested for their therapeutically undesirable immunogenic activity by using Elispot, T-cell proliferation, ERK-activation, and neutrophil chemotaxis assays. The Elispot assay is applicable to determine effects of drugs, chemicals or other compounds on cytokine secretion in vitro, thereby providing data on their putative modulatory effects on immune function in vivo. The results of the assay are given as fraction of positive responses to IFN-gamma. […] Cytokines are direct mediators of inflammation and influence the progress and direction of many immunological reactions. Perturbation of the balance in cytokine production is widely recognized as a critical factor in several disease states. This balance is already disturbed in the case of conditions such as otitis media with effusion and sinusitis. T. cell proliferation is also not favorable in this situation, because this will also stimulate the immune response that is already out of control.
(§4) For T cell proliferation, 150,000 peripheral blood mononuclear cells (PBMC) were cultured in the absence or presence of 10 μg/ml of the compounds for 5 days in 96 well round bottom plates (Costar Inc. Cambridge, Mass.) in a final volume of 150 μl IMDM complete. As a positive control, PBMC were cultured in the presence of 25 U/ml recombinant IL-2. During the final 20 hours of culture, PBMC were pulsed with [3H]thymidine (0.5 microCi/well), after which 3H-incorporation was measured by liquid scintillation counting. For detection of the T cell cytokines IFN and IL-10 by Elispot analysis, 1.5×10^6 PBMC were cultured in 0.5 ml IMDM complete in the absence or presence of various concentrations of synthetic peptide. As a positive control PBMC were stimulated by 10 μg/ml poke weed mitogen (PWM). After 48 hours of culture, PBMC were harvested by gently rinsing the wells with warm IMDM to collect non-adherent cells, which were washed in a large volume of IMDM. PBMC were subsequently plated on antibody-precoated ELISA plates and cultured for 5 hours in IMDM supplemented with 2% pooled human AB serum at 37° C. 5% CO2, after which the plates were developed according to the manufacturer's protocol (U-CyTech, Utrecht, The Netherlands), Spots were counted on an Olympus microscope and analyzed with Olympus Micro Image 4.0 software (Paes Nederland, Zoeterwoude, The Netherlands). The final results are expressed as fraction of positive stimulation indices (positive: >2).

LPS [6] = experiment: LPS neutralization, whole blood (WB) assay; type: cell-based; conditions: ± SD
Experimental: as §1

[7] = test system: neutrophils isolated from peripheral blood; experiment: Neutrophil chemotaxis (modified Boyden chamber); type: cell-based; conditions: percentage neutrophils on the membrane compared to positive control 10^−8 M FMLP; 90 minutes at 37° C.
Experimental: Neutrophils chemotaxis was measured with neutrophils isolated from peripheral blood using Percoll density centrifugation (density: 1.082 g/ml). The cells were resuspended at a concentration of 2.5×10^6 cells/ml in chemotaxis medium (20 mM N-2-hydroxyethylpiperazine-N′-2-ethanesulfonic acid (HEPES buffer) HEPES, 132 mM NaCl, 6 mM KCl, 1.2 mM KH2PO4, 1 mM MgSO4, 5.5 mM glucose, 0.1 mM CaCl2 and 0.5% (wt/vol) human serum albumm [Central Laboratory of the Netherlands Red Cross Blood Transfusion Service (CLB), Amsterdam, The Netherlands] diluted 1:1 with serum-free RPMI. The chemotactic activity of the compounds was assessed using a modified Boyden Camber technique. Briefly, 26 μl stimuli diluted in HEPES buffer was added to the wells of the lower compartment, and 50 μl of neutrophil suspension (2.5×10^6 cells/ml) was added to the upper compartment. The compartments were separated by two filters: a lower filter with a pore size of 0.45 μm (Millipore Products, Bedford, Mass.) and an upper filter with a pore size of 8 μm (Sartorius Filter, San Francisco, Calif.). After incubation for 90minutes at 37° C., the upper filters were removed, fixed in ethanol-butanol (80:20, vol/vol), and stained with Weigert solution. To determine neutrophil chemotactic activity, neutrophils were counted in six random high-power fields (×400), and the percentage neutrophils on the membrane as compared to the positive control (10^−8 M, N-formylmethionyl-leucyl-phenylalanine (FMLP, Sigma) was calculated.

[8] = test system: peripheral blood mononuclear cells (PBMC); experiment: T cell proliferation ([3H]thymidine incorporation); type: cell-based; conditions: fraction of positive stimulation indices (positive: >2), 10 μg/ml compound, 5 days
Experimental: as §3, §4

rabbits [9] = test system: rabbits
Experimental: (§5) For the skin and eye irritation tests, three rabbits were exposed to 0.5 ml phosphate buffered peptide solution (2 mg/ml), applied onto clipped skin for 4 hours using a semi-occlusive dressing. Observations were made 1, 24, 48, and 72 hours after exposure. Single samples of 0.1 ml of phosphate buffered (pH7.5) peptide solution (2 mg/ml) were instilled into one eye of each of three rabbits to perform an acute eye irritation/corrosion study. Observations were made 1, 24, 48, and 72 hours after instillation.

guinea pigs = type: in vivo, guinea pig
Experimental: The skin was sutured closed and follow-up auditory testing was performed.
Auditory brainstem response (ABR) was performed prior to drug administration and directly after surgery and 3, 7, 14 and 22 days later, using a computer-based signal averaging system (Tucker-Davis Technology, Alucha, Fla., USA). Guinea pigs were anesthetized and an insert earphone was placed into the external ear canal. […] Ground electrodes were placed over the neck muscles. […] Stimulus intensities were measured and expressed as dB.

rabbits [10] = conditions: 0.5 ml peptide solution 2 mg/ml on clipped skin for 4 hours, semi-occlusive; observed 1-72 hours
Experimental: as §5

rats = experiment: Single and repeated dose intravenous systemic toxicity study; type: in vivo, rat
Experimental: The systemic toxicity of P60.4Ac was assessed in a single and repeated dose toxicity study in rats. The peptide was administered daily intravenously in escalating doses. In this phase, the Maximum Tolerated Dose (MTD) was established. Repeated dose toxicity was also studied in the MTD phase. In the dose escalation phase, 9 rate were divided in three groups and received 0.4, 2 or 8 mg/kg/day for two days. Clinical signs were recorded twice daily on days of dosing and one day after dosing, body weights were recorded prior to the first dose and one day after dosing. In the MTD phase, 5 female and 5 male rats received 8 mg/kg/day for 5 following days. Clinical signs were recorded twice daily on days of dosing, body weight on day 1 and 6. Clinical laboratory investigations were performed prior to necropsy. Macroscopy was performed at termination of the MTD phase.

[11] = A. niger ATCC14406, incubation 24 h
[12] = A. niger ATCC14406, incubation 48 h
[13] = E. coli ATCC8739, incubation 24 h
[14] = E. coli ATCC8739, incubation 48 h
[15] = P. aeruginosa ATCC9027, incubation 24 h
[16] = P. aeruginosa ATCC9027, incubation 48 h
[17] = C. albicans ATCC10231, incubation 24 h
[18] = C. albicans ATCC10231, incubation 48 h
[19] = intravenous, 8 mg/kg/day for 5 days
[20] = intravenous, 0.4, 2 or 8 mg/kg/day for two days

Compound | Compound concentration for 50% LTA-neutralization, LTA (WB) (LTA) [µg/mL] | Compound concentration for 50% LPS-neutralization, LPS (LAL) (LPS [1]) [µg/mL] | MIC [2, 11] [µM] | MIC [2, 12] | MIC [3, 13] [µM] | MIC [3, 14] | MIC (P. aeruginosa ATCC9027; [15]) [µM] | MIC (P. aeruginosa ATCC9027; [16]) | MIC [4, 17] [µM] | MIC [4, 18] | γ-IFN Elispot [5] | Compound concentration for 50% LPS-neutralization, LPS (WB) (LPS [6]) [µg/mL] | Chemotaxis (%) [7] [%] | T cell proliferation [8] | other results
CC[C@H](C)[C@H](NC(=O)[C@H](CCCCN)NC(=O)[C@H](CCC(=O)O)NC(=O)[C@H](CCCCN)NC(=O)[C@H](CO)NC(=O)[C@H](CCCCN)NC(=O)[C@H](CCCNC(=N)N)NC(=O)[C@H](Cc1ccccc1)NC(=O)[C@H](Cc1ccccc1)NC(=O)[C@H](CC(=O)O)NC(=O)CNC(=O)[C@H](CC(C)C)NC(=O)[C@@H](N)CC(C)C)C(=O)NCC(=O)N[C@@H](CCCCN)C(=O)N[C@@H](CCC(=O)O)C(=O)N[C@@H](Cc1ccccc1)C(=O)N[C@@H](CCCCN)C(=O)N[C@@H](CCCNC(=N)N)C(=O)N[C@H](C(=O)N[C@H](C(=O)N[C@@H](CCC(N)=O)C(=O)N[C@@H](CCCNC(=N)N)C(=O)N[C@H](C(=O)N[C@@H](CCCCN)C(=O)N[C@@H](CC(=O)O)C(=O)N[C@@H](Cc1ccccc1)C(=O)N[C@@H](CC(C)C)C(=O)N[C@@H](CCCNC(=N)N)C(=O)N[C@@H](CC(N)=O)C(=O)N[C@@H](CC(C)C)C(=O)N[C@H](C(=O)N1CCC[C@H]1C(=O)N[C@@H](CCCNC(=N)N)C(=O)N[C@H](C(=O)N[C@@H](CCC(=O)O)C(=O)N[C@@H](CO)C(=O)O)[C@@H](C)O)C(C)C)[C@@H](C)CC)C(C)C)[C@@H](C)CC [LL-37, reference compound] | 1.6 ± 0.5 | 1.3 ± 0.2 | >18 | >18^e μM | 3 (≈ 13.5 µg/mL) | 7^b μM | 3 (≈ 13.5 µg/mL) | 14^d μM | 12 (≈ 53.9 µg/mL) | >18^e μM | 4/8 | 1.2 ± 0.3 | 84 ± 17 | 6/8 | activity against A. niger ([2]; up to 18 μM): no activity
Ac-IGKEFKRIVERIKRFLRELVRPLR-NH2 [Compound P60.4Ac] |  |  | 18 | >18^e μM | 2 | 3^c μM | 3 | 6^b μM | 6 | 6^f μM |  |  |  |  | time to complete resolution of conjunctival redness after instillation (rabbits [9]; 0.1 ml peptide solution 2 mg/ml into one eye): ≤ 24 h; eye irritation finding after ophthalmic instillation (rabbits [9]; 0.1 ml phosphate buffered (pH7.5) peptide solution 2 mg/ml into one eye): redness of the conjunctivae; ABR threshold change (guinea pigs; P60.4-Ac 2 mg/ml in PBS, 22 days after surgery): −7 dB; ABR threshold change (guinea pigs; P60.4-Ac as formulation II, both animals, 22 days): 1 dB; skin irritation (rabbits [10]): no skin irritation was detectable; clinical signs, body weight, hematology, clinical biochemistry and macroscopic examination, MTD phase (rats; [19]): no clear peptide related findings; mortality, MTD phase (rats; [19]): no mortality occurred; clinical signs and body weight, dose escalation phase (rats; [20]): no clear deviations; mortality, dose escalation phase (rats; [20]): no mortality occurred
IGKEFERIVQRIKDFLRNLVPRTE [Compound P60, 24 amino acid peptide derived from CAP18/LL-37] | 2.1 ± 0.7 | 1.5 ± 0.5 |  |  |  |  |  |  |  |  | 1/8 | 1.4 ± 0.1 | 76 ± 39 | 7/8 | 
IGKEFKRIVERIKRFLRELVRPLR [Compound P60.4] | 2.0 ± 1.3 | 1.7 ± 0.6 |  |  |  |  |  |  |  |  | 3/8 | 2.1 ± 0.6 | 0 ± 0 | 2/8 | 
IGKEFKRIVQRIKDFLRNLVPRTE [Compound P60.Ac] | 2.1 ± 0.1 | 1.8 ± 0.8 |  |  |  |  |  |  |  |  | 3/8 | 2.4 ± 0.5 | 61 ± 36 | 4/8 | 
